From US10745693B2, “Methods of designing programmable inducible promoters” (WISCONSIN ALUMNI RESEARCH FOUNDATION, priority 2017, dated 2020)

Test system: PmeR
Experiment: Induction assay of PmeR-enriched promoter library driving GFP in E. coli DH10B (flow cytometer)
Assay type: cell-based, Pseudomonas syringae
Conditions: 300 uM naringenin, over-night growth, E. coli DH10B population repressed by PmeR
Description: In this example, the allosteric transcription factor was PmeR (repressor) and the inducer molecule was naringenin.
The post in vitro enrichment of polynucleotides (with PmeR protein) was cloned into a vector to drive the expression of a green fluorescent protein using the Golden Gate assembly method. Following the transformation and over-night growth in E. coli DH10B, the fluorescent intensity distribution was profiled using a flow cytometer with 488 nm laser and 510 (25) nm filter. The delivery of the transcription repressor was through a second vector containing constitutively expressing PmeR protein. The fluorescent intensity distribution shift was captured with a flow cytometer after over-night growth. A decrease of overall fluorescent intensity was observed. The induction assay was conducted with the addition of 300 uM naringenin to the previous E. coli population with decreased fluorescence.

SMILES: O=C1C[C@@H](c2ccc(O)cc2)Oc2cc(O)cc(O)c21 [naringenin]
- Change of fluorescent intensity distribution on induction: overall increase in fluorescent intensity
